Reference: patent US12529022B2, “Human organ-on-chip models for predictive screening” (The Trustees of Columbia University in the City of New York, priority 2018, dated 2026)
Where a name gives a salt, the structure may show the parent alone. Values belong to the molecule of their own block, whether it stands above or below them.

Key:
human cardiac OOC [1] = assay: cells; conditions: read-out: EC50 of increase in beat frequency
Source text: (§2) The pillars subjected the hydrogel to mechanical loading designed to mimic that in the native heart. The hydrogel compaction caused passive tension in the tissues as they're stretched and aligned between the pillars. Synchronous contractions forced the tissues to work against the pillars. […] Cardiac model development: Cardiac tissues were formed by cell encapsulation in fibrin hydrogel. Human iPS cell-derived cardiomyocytes at day 16 of differentiation were combined with normal human dermal fibroblasts (NHDF; Lonza) at a ratio of 75% hiPSC-CMs and 25% NHDF, for a total of 1 million cells per tissue. The hydrogel was formed by mixing 33 mg/mL of fibrinogen from human plasma (Sigma-Aldrich) with 25 U/mL of thrombin from human plasma (Sigma-Aldrich), on a 84:16 ratio. The hydrogel mixed with the cells was dispensed into each well of the tissues formation reservoir and allowed to polymerize at 37° C. for 15 min before adding RPMI Medium 1640 supplemented with B-27™ containing 0.2 mg/ml aprotinin (Sigma-Aldrich). Subsequently, medium was changed every other day supplemented with 0.2 mg/ml aprotinin for the first 7 days. After 7 days, tissues were used in experiments. […] Contractility videos: Tissue contractility was measured by tracking the change in tissue area as a function of time. […] Absolute differences in cell area from the baseline frame were then calculated to create a time course of cell area dynamics as a function of time. The resulting time courses were analysed using a native MATLAB (MATHWorks) automated peak finding algorithm to determine locations of maximum cell contraction indicated by the locations of local maxima in the time courses. Beat period lengths were determined from the length of time between the pairs of local maxima. Beat frequencies were determined by inverting beat periods; relaxation times were measured from the length of time required for the tissue to relax from the peak contraction amplitude of the local maxima to the calculated relaxation amplitude.

skin tissues = assay: Doxorubicin study: skin barrier transport and TEER; format: cell-based, human; conditions: 30 μM, 72 hours, isolated and integrated comparable
Protocol: (§1) Common tissue responses were measured for each tissue individually, 72 hours after their assembly into the integrated platform and exposure to 30 μM concentration of doxorubicin introduced into the circulatory perfusion. FIG. 61 illustrates the Doxorubicin (Dox) drug study design including four conditions tests (integrated control, integrated Dox, isolated control, isolated Dox).

Bone tissues = assay: Doxorubicin study: bone remodeling and histology; conditions: 30 μM, 72 hours
Protocol: as §1

cardiac compartment = assay: Doxorubicin study: cardiac compartment function; format: cell-based, human; conditions: 30 μM, 72 hours
all tissue types = assay: Doxorubicin study in integrated multi-tissue platform: common toxicity readouts; format: cell-based, human; conditions: 72 hours after 30 μM dose
Liver tissues = assay: Doxorubicin study: liver functionality; format: cell-based, human; conditions: 30 μM, 72 hours, only in the integrated experimental groups
Protocol: as §1

human cardiac OOC [2] = system: human cardiac OOC
Source text: as §2

EC50 (human cardiac OOC [1]): 0.03 µM
SMILES: CC(C)NCC(O)c1ccc(O)c(O)c1 (stereo not drawn) [isoproterenol, isoproterenol hydrochloride]

electrical resistance (TEER) of skin (skin tissues): electrical resistance decreased
TRAP activity (bone remodeling) (Bone tissues): stable TRAP responses
release of troponin (cardiac compartment): increased release of troponin
albumin production (Liver tissues): decreased albumin
urea production (Liver tissues): unaffected urea production
SMILES: COc1cccc2c1C(=O)c1c(O)c3c(c(O)c1C2=O)C[C@@](O)(C(=O)CO)C[C@@H]3O[C@H]1C[C@H](N)[C@H](O)[C@H](C)O1 [doxorubicin, doxorubicin hydrochloride]
contractile and conductive behavior (cardiac compartment): decreased contractile and conductive behavior
cell viability (all tissue types): significant decreases
glucose consumption (all tissue types): significant decreases
mitochondrial activity (all tissue types): significant decreases

SMILES: CCCCc1oc2ccccc2c1C(=O)c1cc(I)c(OCCN(CC)CC)c(I)c1 [amiodarone, amiodarone hydrochloride]
beating frequency (human cardiac OOC [2]; amiodarone 2.42 μM (FIG. 50 legend prints 2.42 M), over 48 hours): beating frequency decreased

SMILES: Cn1c(=O)c2c(ncn2C)n(C)c1=O [caffeine]
beat frequency (human cardiac OOC [2]; caffeine 50 mM): increase in beat frequency
